Experimental data published in the NIST ThermoML archive (doi:10.1016/j.jct.2010.08.019).

Assay: refractive index (Na D-line) (dimensionless); xn = mol fraction of the nth substance listed
Conditions: 101 kPa, Liquid, Standard Abbe refractometry

CC(C)CC(C)(C)C [2,2,4-trimethylpentane] + CC(C)O
Conditions | refractive index
293.15 K, x2 = 0.2501 | 1.41104
293.15 K, x2 = 0.3003 | 1.40906
293.15 K, x2 = 0.3502 | 1.40701
293.15 K, x2 = 0.4004 | 1.40497
293.15 K, x2 = 0.4502 | 1.4029
293.15 K, x2 = 0.5001 | 1.40079
293.15 K, x2 = 0.55 | 1.39865
293.15 K, x2 = 0.5998 | 1.39647
293.15 K, x2 = 0.6502 | 1.39422
293.15 K, x2 = 0.7002 | 1.39194
293.15 K, x2 = 0.7499 | 1.38965
293.15 K, x2 = 0.7999 | 1.38727
293.15 K, x2 = 0.85 | 1.38486
293.15 K, x2 = 0.8999 | 1.38241
293.15 K, x2 = 0.95 | 1.37993
303.15 K, x2 = 0 | 1.41599
303.15 K, x2 = 0.05 | 1.41398
303.15 K, x2 = 0.1 | 1.41198
303.15 K, x2 = 0.1499 | 1.41
303.15 K, x2 = 0.2004 | 1.408
303.15 K, x2 = 0.2497 | 1.40602
303.15 K, x2 = 0.3 | 1.40405
303.15 K, x2 = 0.3499 | 1.40202
303.15 K, x2 = 0.4008 | 1.40001
303.15 K, x2 = 0.4503 | 1.39797
303.15 K, x2 = 0.5 | 1.3959
303.15 K, x2 = 0.5498 | 1.3938
303.15 K, x2 = 0.6001 | 1.39166
303.15 K, x2 = 0.65 | 1.38947
303.15 K, x2 = 0.7001 | 1.38724
303.15 K, x2 = 0.7495 | 1.38498
303.15 K, x2 = 0.7989 | 1.38267
303.15 K, x2 = 0.8499 | 1.3803
303.15 K, x2 = 0.8997 | 1.37788
303.15 K, x2 = 0.95 | 1.37545
313.15 K, x2 = 0 | 1.41092
313.15 K, x2 = 0.0499 | 1.40889
313.15 K, x2 = 0.1001 | 1.40693
313.15 K, x2 = 0.1503 | 1.40494
313.15 K, x2 = 0.2001 | 1.40299
313.15 K, x2 = 0.2499 | 1.40102
313.15 K, x2 = 0.3003 | 1.39906
313.15 K, x2 = 0.3497 | 1.39707
313.15 K, x2 = 0.4 | 1.39507
313.15 K, x2 = 0.4502 | 1.39301
313.15 K, x2 = 0.5005 | 1.39098
313.15 K, x2 = 0.5499 | 1.38891
313.15 K, x2 = 0.6 | 1.38681
313.15 K, x2 = 0.6498 | 1.38469
313.15 K, x2 = 0.6999 | 1.38251
313.15 K, x2 = 0.75 | 1.38031
313.15 K, x2 = 0.7998 | 1.37808
313.15 K, x2 = 0.8498 | 1.37578
313.15 K, x2 = 0.8999 | 1.37345
313.15 K, x2 = 0.9499 | 1.37107
323.15 K, x2 = 0 | 1.40554
323.15 K, x2 = 0.0501 | 1.40351
323.15 K, x2 = 0.1 | 1.40154
323.15 K, x2 = 0.15 | 1.39952
323.15 K, x2 = 0.1998 | 1.39757
323.15 K, x2 = 0.25 | 1.39566
323.15 K, x2 = 0.3 | 1.39368
323.15 K, x2 = 0.35 | 1.39173
323.15 K, x2 = 0.4 | 1.38974
323.15 K, x2 = 0.4499 | 1.38775
323.15 K, x2 = 0.5 | 1.38572
323.15 K, x2 = 0.5501 | 1.38366
323.15 K, x2 = 0.6 | 1.38161
323.15 K, x2 = 0.65 | 1.37953
323.15 K, x2 = 0.7 | 1.37741
323.15 K, x2 = 0.7499 | 1.37522
323.15 K, x2 = 0.7999 | 1.37303
323.15 K, x2 = 0.85 | 1.3708
323.15 K, x2 = 0.9 | 1.36851
323.15 K, x2 = 0.95 | 1.36617

C1CCOCC1 [tetrahydropyran] + CC(C)CC(C)(C)C
Conditions | refractive index
293.15 K, x1 = 0.0502 | 1.39259
293.15 K, x1 = 0.1 | 1.39359
293.15 K, x1 = 0.1499 | 1.39461
293.15 K, x1 = 0.2 | 1.39567
293.15 K, x1 = 0.25 | 1.39677
293.15 K, x1 = 0.3 | 1.39792
293.15 K, x1 = 0.35 | 1.39911
293.15 K, x1 = 0.4 | 1.40036
293.15 K, x1 = 0.4498 | 1.40167
293.15 K, x1 = 0.5001 | 1.40303
293.15 K, x1 = 0.5501 | 1.40446
293.15 K, x1 = 0.5999 | 1.40595
293.15 K, x1 = 0.6501 | 1.40753
293.15 K, x1 = 0.6999 | 1.40917
293.15 K, x1 = 0.75 | 1.41092
293.15 K, x1 = 0.8 | 1.41274
293.15 K, x1 = 0.8501 | 1.41468
293.15 K, x1 = 0.9 | 1.4167
293.15 K, x1 = 0.95 | 1.41885
293.15 K, x1 = 1 | 1.42109
303.15 K, x1 = 0.0502 | 1.38756
303.15 K, x1 = 0.1 | 1.38853
303.15 K, x1 = 0.1499 | 1.38953
303.15 K, x1 = 0.2 | 1.39057
303.15 K, x1 = 0.25 | 1.39166
303.15 K, x1 = 0.2999 | 1.39279
303.15 K, x1 = 0.3498 | 1.39399
303.15 K, x1 = 0.3998 | 1.39524
303.15 K, x1 = 0.4498 | 1.39654
303.15 K, x1 = 0.5001 | 1.3979
303.15 K, x1 = 0.5501 | 1.39932
303.15 K, x1 = 0.5999 | 1.40081
303.15 K, x1 = 0.6501 | 1.40239
303.15 K, x1 = 0.6999 | 1.40403
303.15 K, x1 = 0.75 | 1.40577
303.15 K, x1 = 0.8 | 1.4076
303.15 K, x1 = 0.8501 | 1.40954
303.15 K, x1 = 0.9 | 1.41158
303.15 K, x1 = 0.95 | 1.41373
303.15 K, x1 = 1 | 1.41599
313.15 K, x1 = 0.0501 | 1.38237
313.15 K, x1 = 0.1002 | 1.38334
313.15 K, x1 = 0.1501 | 1.38433
313.15 K, x1 = 0.1999 | 1.38537
313.15 K, x1 = 0.2501 | 1.38645
313.15 K, x1 = 0.3 | 1.38759
313.15 K, x1 = 0.3499 | 1.38877
313.15 K, x1 = 0.4002 | 1.39001
313.15 K, x1 = 0.4502 | 1.39131
313.15 K, x1 = 0.4999 | 1.39266
313.15 K, x1 = 0.5499 | 1.39409
313.15 K, x1 = 0.6 | 1.39559
313.15 K, x1 = 0.65 | 1.39716
313.15 K, x1 = 0.6998 | 1.39881
313.15 K, x1 = 0.75 | 1.40055
313.15 K, x1 = 0.8001 | 1.40239
313.15 K, x1 = 0.8501 | 1.40432
313.15 K, x1 = 0.9001 | 1.40638
313.15 K, x1 = 0.9498 | 1.40857
313.15 K, x1 = 1 | 1.41092
323.15 K, x1 = 0.0501 | 1.37719
323.15 K, x1 = 0.1002 | 1.37814
323.15 K, x1 = 0.1501 | 1.37913
323.15 K, x1 = 0.1999 | 1.38015
323.15 K, x1 = 0.2501 | 1.38122
323.15 K, x1 = 0.3 | 1.38233
323.15 K, x1 = 0.3499 | 1.38349
323.15 K, x1 = 0.4002 | 1.38471
323.15 K, x1 = 0.45 | 1.38599
323.15 K, x1 = 0.5002 | 1.38733
323.15 K, x1 = 0.55 | 1.38874
323.15 K, x1 = 0.5997 | 1.39022
323.15 K, x1 = 0.65 | 1.39179
323.15 K, x1 = 0.6998 | 1.39343
323.15 K, x1 = 0.75 | 1.39518
323.15 K, x1 = 0.8001 | 1.39701
323.15 K, x1 = 0.8501 | 1.39895
323.15 K, x1 = 0.9002 | 1.40101
323.15 K, x1 = 0.95 | 1.40319
323.15 K, x1 = 1 | 1.40554
